Patent US8481584B2, “1H-thieno[2,3-c]pyrazole derivatives useful as kinase inhibitors” (Nerviano Medical Sciences S.R.L., priority 2004, dated 2013)

Target: T1, Aurora-2 (Homo sapiens, UniProt O14965)
T1 sequence (O14965 1-403): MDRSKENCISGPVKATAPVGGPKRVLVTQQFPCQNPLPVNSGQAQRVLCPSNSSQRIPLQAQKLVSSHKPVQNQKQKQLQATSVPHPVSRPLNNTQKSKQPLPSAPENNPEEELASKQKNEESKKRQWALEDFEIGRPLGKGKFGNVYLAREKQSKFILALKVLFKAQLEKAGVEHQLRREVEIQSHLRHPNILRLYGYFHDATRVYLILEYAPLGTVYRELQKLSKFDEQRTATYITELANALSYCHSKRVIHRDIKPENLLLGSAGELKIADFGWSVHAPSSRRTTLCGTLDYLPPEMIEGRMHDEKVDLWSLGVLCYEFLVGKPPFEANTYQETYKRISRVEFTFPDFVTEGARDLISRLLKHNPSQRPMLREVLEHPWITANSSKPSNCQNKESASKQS
Assay: Inhibition assay of Aurora-2 activity (SPA technology)
Type: biochemical
Settings: screened according to the methods of the pharmacology section; read-out: IC50 values for Aurora-2 inhibition
Description: The inhibiting activity and the potency of selected compounds is determined through a method of assay based on the use of the SPA technology (Amersham Pharmacia Biotech).
The assay consists of the transfer of radioactivity labelled phosphate moiety by the kinase to a biotinylated substrate. The resulting 33P-labelled biotinylated product is allowed to bind to streptavidin-coated SPA beads (biotin capacity 130 pmol/mg), and light emitted was measured in a scintillation counter.
Inhibition Assay of Aurora-2 Activity
After 60 minutes at room temperature incubation, reaction was stopped and biotinylated peptide captured by adding 100 μl of bead suspension.
Stratification: 100 μl of CsCl2 5 M were added to each well and let stand 4 hour before radioactivity was counted in the Top-Count instrument.
Experimental data were analyzed by the computer program GraphPad Prizm using the four parameter logistic equation: y=bottom+(top−bottom)/(1+10^((logIC50−x)*slope)) where x is the logarithm of the inhibitor concentration, y is the response; y starts at bottom and goes to top with a sigmoid shape.

| SMILES | IC50 [nM] |
| --- | --- |
| CC(C)NCc1ccc(C(=O)Nc2n[nH]c3sc(C(=O)NC(C)(C)c4ccccc4)cc23)cc1 [Compound 40, 3-[4-(Isopropylamino-methyl)-benzoylamino]-1H-thieno[2,3-c]pyrazole-5-carboxylic acid (1-methyl-1-phenyl-ethyl)-amide] | < 20 |
| CC(C)(NC(=O)c1cc2c(NC(=O)c3ccc(CN4CCCC4)cc3)n[nH]c2s1)c1cccc(F)c1 [Compound 50, 3-(4-Pyrrolidin-1-ylmethyl-benzoylamino)-1H-thieno[2,3-c]pyrazole-5-carboxylic acid [1-(3-fluoro-phenyl)-1-methyl-ethyl]-amide] | < 20 |
| CC(C)(NC(=O)c1cc2c(NC(=O)c3cccs3)n[nH]c2s1)c1ccccc1F [Compound 123, 3-[(Thiophene-2-carbonyl)-amino]-1H-thieno[2,3-c]pyrazole-5-carboxylic acid [1-(2-fluoro-phenyl)-1-methyl-ethyl]-amide] | < 20 |
| CC(C)(NC(=O)c1cc2c(NC(=O)c3ccc(CN4CCCCC4)cc3)n[nH]c2s1)c1cccc(F)c1 [Compound 51, 3-(4-Piperidin-1-ylmethyl-benzoylamino)-1H-thieno[2,3-c]pyrazole-5-carboxylic acid [1-(3-fluoro-phenyl)-1-methyl-ethyl]-amide] | < 20 |
| CC(C)(NC(=O)c1cc2c(NC(=O)c3ccc(N4CCOCC4)nc3)n[nH]c2s1)c1ccccc1 [Compound 136, 3-[(6-Morpholin-4-yl-pyridine-3-carbonyl)-amino]-1H-thieno[2,3-c]pyrazole-5-carboxylic acid (1-methyl-1-phenyl-ethyl)-amide] | < 20 |
| CC(C)(NC(=O)c1cc2c(NC(=O)c3ccc(F)cc3)n[nH]c2s1)c1ccccc1 [Compound 8, 3-[(4-fluorobenzoyl)amino]-N-(1-methyl-1-phenylethyl)-1H-thieno[2,3-c]pyrazole-5-carboxamide] | < 20 |
| CN1CCN(c2ccc(C(=O)Nc3n[nH]c4sc(C(=O)NC(C)(C)c5cccc(Cl)c5)cc34)cc2)CC1 [Compound 132, 3-[4-(4-Methyl-piperazin-1-yl)-benzoylamino]-1H-thieno[2,3-c]pyrazole-5-carboxylic acid[1-(3-chloro-phenyl)-1-methyl-ethyl]amide] | < 20 |
| CC[C@@H](NC(=O)c1cc2c(NC(=O)c3ccc(F)cc3)n[nH]c2s1)c1ccccc1 [Compound 9, 3-[(4-fluorobenzoyl)amino]-N-[(1R)-1-phenylpropyl]-1H-thieno[2,3-c]pyrazole-5-carboxamide] | < 20 |
| CN1CCN(c2ccc(C(=O)Nc3n[nH]c4sc(C(=O)NC5(c6ccccc6)CCCC5)cc34)cc2)CC1 [Compound 34, 3-{[4-(4-methylpiperazin-1-yl)benzoyl]amino}-N-(1-phenylcyclopentyl)-1H-thieno[2,3-c]pyrazole-5-carboxamide] | < 20 |
| CC(C)(NC(=O)c1cc2c(NC(=O)c3ccc(CNC4CC4)cc3)n[nH]c2s1)c1ccccc1 [Compound 62, 3-(4-Cyclopropylaminomethyl-benzoylamino)-1H-thieno[2,3-c]pyrazole-5-carboxylic acid (1-methyl-1-phenyl-ethyl)-amide] | < 20 |
| CN1CCN(c2ccc(C(=O)Nc3n[nH]c4sc(C(=O)N[C@H](CN5CCCC5)c5ccccc5)cc34)cc2)CC1 [Compound 32, 3-{[4-(4-methylpiperazin-1-yl)benzoyl]amino}-N-[(1S)-1-phenyl-2-pyrrolidin-1-ylethyl]-1H-thieno[2,3-c]pyrazole-5-carboxamide] | < 20 |
| CC(C)(NC(=O)c1cc2c(NC(=O)c3ccc(CNC4CCCC4)cc3)n[nH]c2s1)c1ccccc1 [Compound 65, 3-(4-Cyclopentylaminomethyl-benzoylamino)-1H-thieno[2,3-c]pyrazole-5-carboxylic acid (1-methyl-1-phenyl-ethyl)-amide] | < 20 |
| Cn1cccc1C(=O)Nc1n[nH]c2sc(C(=O)NC(C)(C)c3ccccc3)cc12 [Compound 21, N-(1-methyl-1-phenylethyl)-3-{[(1-methyl-1H-pyrrol-2-yl)carbonyl]amino}-1H-thieno[2,3-c]pyrazole-5-carboxamide] | < 20 |
| O=C(Nc1n[nH]c2sc(C(=O)NC3(c4ccccc4)CCCC3)cc12)c1ccc(N2CCOCC2)cc1 [Compound 131, 3-(4-Morpholin-4-yl-benzoylamino)-1H-thieno[2,3-c]pyrazole-5-carboxylic acid (1-phenyl-cyclopentyl)-amide] | < 20 |
| CC(C)(NC(=O)c1cc2c(NC(=O)c3ccc(CN4CCCCC4)cc3)n[nH]c2s1)c1ccccc1 [Compound 39, 3-(4-Piperidin-1-ylmethyl-benzoylamino)-1H-thieno[2,3-c]pyrazole-5-carboxylic acid(1-methyl-1-phenyl-ethyl)-amide] | < 20 |
| CN1CCC(Oc2ccc(C(=O)Nc3n[nH]c4sc(C(=O)NC(C)(C)c5ccccc5)cc34)cc2)CC1 [Compound 25, N-(1-methyl-1-phenylethyl)-3-({4-[(1-methylpiperidin-4-yl)oxy]benzoyl}amino)-1H-thieno[2,3-c]pyrazole-5-carboxamide] | < 20 |
| CC(C)(NC(=O)c1cc2c(NC(=O)c3ccc(CN4CCSC4)cc3)n[nH]c2s1)c1ccccc1 [Compound 49, 3-(4-Thiazolidin-3-ylmethyl-benzoylamino)-1H-thieno[2,3-c]pyrazole-5-carboxylic acid (1-methyl-1-phenyl-ethyl)-amide] | < 20 |
| CC(C)(NC(=O)c1cc2c(NC(=O)c3ccc(N4CCOCC4)cc3)n[nH]c2s1)c1ccc(F)cc1 [Compound 150, 3-(4-Morpholin-4-yl-benzoylamino)-1H-thieno[2,3-c]pyrazole-5-carboxylic acid [1-(4-fluoro-phenyl)-1-methyl-ethyl]-amide] | < 20 |
| O=C(Nc1n[nH]c2sc(C(=O)N[C@H](CN3CCOCC3)c3ccccc3)cc12)c1ccc(N2CCOCC2)cc1 [Compound 6, 3-[(4-morpholin-4-ylbenzoyl)amino]-N-[(1S)-2-morpholin-4-yl-1-phenylethyl]-1H-thieno[2,3-c]pyrazole-5-carboxamide] | < 20 |
| COc1ccc(C(=O)Nc2n[nH]c3sc(C(=O)NC4(c5ccccc5)CC4)cc23)cc1 [Compound 134, 3-(4-Methoxy-benzoylamino)-1H-thieno[2,3-c]pyrazole-5-carboxylic acid (1-phenyl-cyclopropyl)-amide] | < 20 |
| CC(C)(NC(=O)c1cc2c(NC(=O)c3ccc(N4CCOCC4)cc3)n[nH]c2s1)c1cccc(S(C)(=O)=O)c1 [Compound 147, 3-(4-Morpholin-4-yl-benzoylamino)-1H-thieno[2,3-c]pyrazole-5-carboxylic acid [1-(3-methanesulfonyl-phenyl)-1-methyl-ethyl]amide] | < 20 |
| CN(C)CCOc1ccc(C(=O)Nc2n[nH]c3sc(C(=O)NC(C)(C)c4ccccc4F)cc23)cc1 [Compound 126, 3-[4-(2-Dimethylamino-ethoxy)-benzoylamino]-1H-thieno[2,3-c]pyrazole-5-carboxylic acid [1-(2-fluoro-phenyl)-1-methyl-ethyl]-amide] | < 20 |
| C[C@@H](NC(=O)c1cc2c(NC(=O)c3ccc(F)cc3)n[nH]c2s1)c1ccc(F)cc1 [Compound 11, 3-[(4-fluorobenzoyl)amino]-N-[(1R)-1-(4-fluorophenyl)ethyl]-1H-thieno[2,3-c]pyrazole-5-carboxamide] | < 20 |
| CC(C)(NC(=O)c1cc2c(NC(=O)c3ccc(Cn4ccnc4)cc3)n[nH]c2s1)c1ccccc1 [Compound 48, 3-(4-Imidazol-1-ylmethyl-benzoylamino)-1H-thieno[2,3-c]pyrazole-5-carboxylic acid (1-methyl-1-phenyl-ethyl)-amide] | < 20 |
| CC[C@@H](NC(=O)c1cc2c(NC(=O)c3ccc(N4CCN(C)CC4)cc3)n[nH]c2s1)c1ccccc1 [Compound 30, 3-{[4-(4-methylpiperazin-1-yl)benzoyl]amino}-N-[(1R)-1-phenylpropyl]-1H-thieno[2,3-c]pyrazole-5-carboxamide] | < 20 |
| CCC(CC)(NC(=O)c1cc2c(NC(=O)c3ccc(N4CCN(C)CC4)cc3)n[nH]c2s1)c1ccccc1 [Compound 33, N-(1-ethyl-1-phenylpropyl)-3-{[4-(4-methylpiperazin-1-yl)benzoyl]amino}-1H-thieno[2,3-c]pyrazole-5-carboxamide] | < 20 |
| CC(C)(NC(=O)c1cc2c(NC(=O)c3ccc(CN4CCN(C(C)(C)C)CC4)cc3)n[nH]c2s1)c1ccccc1 [Compound 57, 3-[4-(4-tert-Butyl-piperazin-1-ylmethyl)-benzoylamino]-1H-thieno[2,3-c]pyrazole-5-carboxylic acid (1-methyl-1-phenyl-ethyl)-amide] | < 20 |
| CN1CCN(c2ccc(C(=O)Nc3n[nH]c4sc(C(=O)N[C@H](CN5CCOCC5)c5ccccc5)cc34)cc2)CC1 [Compound 31, 3-{[4-(4-methylpiperazin-1-yl)benzoyl]amino}-N-[(1S)-2-morpholin-4-yl-1-phenylethyl]-1H-thieno[2,3-c]pyrazole-5-carboxamide] | < 20 |
